Experimental data: US6380182B1, “Methods and compositions controlling biofouling using sulfamic acids” (priority 1997, dated 2002)
“And” between values parts separate entries of the source, which are not always exact repeats. Identical values can stand only once.

Experiments:
Type in all cases: cell-based
[1] = test system: Bacteria of the genera Bacillus, Flavobacterium, and Pseudomonas; test: Bioreactor bacterial adhesion test, quantitative inhibition of bacterial adhesion (IBA) by crystal violet absorbance at 586 nm; conditions: 100 ppm, acetone solvent, 168 h incubation at 26-28 C, 50% or greater considered effective
Method: The test method, construction of bioreactors, bacterial growth medium, preparation of bacterial inocula, and biofilm production/chemical testing is the same as outlined in EXAMPLE 3. After 168 h (1 week) of incubation at 26-28 C, the slides were removed from the bioreactors and were positioned vertically to […] using a staining procedure. The slides were briefly flamed in order to fix the cells to the surface, and then transferred for one minute to a container of Gram Crystal Violet (DIFCO Laboratories, Detroit, Mich.). The slides were gently rinsed under running tap water, carefully blotted, and again allowed to air dry overnight The degree of bacterial adhesion was then determined by a quantitative method of evaluation. The pair of glass slides and the pair of stainless steel slides corresponding to each treatment were placed each in Petri plate with 10 mL ethanol (technical) to remove the crystal violet staining the cells attached to the slides. A 1 mL aliquot of the crystal violet ethanol solution obtained in each Petri plate was transferred each to a test tube with 9 mL of deionized sterile water ( 1/10 dilution). The blank for calibration of the optical instrument used for the evaluation was a solution of 1 mL of ethanol in 9 mL of deionized sterile water. The absorbance (ABS) of each solution was determined using a spectrophotometer (Spectronic 21, Bausch and Lomb) at a wavelength of 586 nm. The inhibition of bacterial adhesion (IBA) was calculated: IBA=100 (ABS control−ABS treatment)\ABS control 90 or >% IBA=essentially no bacterial adhesion 89-70% IBA=scant 69-50% IBA=slight 30% IBA=moderate 29-<29% IBA=moderate Compounds which receive 50% IBA or greater were considered effective to prevent the adhesion of bacteria to the submerged slides.

E. Aerogenes = test: Minimum inhibitory concentration, 18 hour Basal Salts test; conditions: for MIC pH8: pH 8; for MIC pH6: pH 6
[2] = test system: Bacteria of the genera Bacillus, Flavobacterium, and Pseudomonas; test: Bioreactor bacterial adhesion test, visual biofilm scoring of crystal violet stained slides; set-up: key: 0=essentially none; 1=scant; 2=slight; 3=moderate; 4=heavy; conditions: Glass slides; 100 ppm; acetone solvent; 3 days; average of four replicate slides; 0-2 considered effective
Text: Test Method: The following method effectively defines the ability of a chemical compound to inhibit bacterial adhesion, or attack the formation of existing attached microorganisms, on various types of surfaces. As an overview, bioreactors were constructed in which approximately 1 in.×3 in. slides (glass or stainless steel) were fixed to the edge of the bioreactor. The lower ends (approx. 2 in.) of the slides dipped into a bacterial growth medium (pH 7) within the bioreactor which contained a known concentration of the test chemical. Following inoculation with known bacterial species, the test solutions were stirred continuously for 3 days. Unless otherwise indicated in the results below, the medium within the bioreactor was turbid by the end of three days. […] A staining procedure was then used on the slides in order to determine the amount of bacteria attached to the surfaces of the slides.
Construction of Bioreactors: The bioreactors comprised a 400 ml glass beaker over which a lid (cover from a standard 9 cm diameter glass petri dish) was placed. With the lid removed, slides of the material of choice were taped at one end with masking tape and suspended inside the bioreactor from the top edge of the beaker. This allows the slides to be submerged within the test medium. Typically, four slides (replicates) were uniformly spaced around the bioreactor. The score presented below are the average of the four replicates. A magnetic stirring bar was placed in the bottom of the unit, the lid positioned, and the bioreactor autoclaved. Two different types of material were used as slides, stainless steel as a metal and glass as a hydrophillic surface.
Bacterial Growth Medium: The liquid medium utilized in the bioreactors was described previously by Delaquis, et al., “Detachment Of Pseudomonas fluorescens From Biofilms On Glass Surfaces In Response To Nutrient Stress”, Microbial Ecology 18:199-210, 1989. The composition of the medium was:
The medium was autoclaved and then allowed to cool. If a sediment formed in the autoclaved medium, the medium was resuspended by shaking before use.
Preparation of Bacterial Inocula: Bacteria of the genera Bacillus, Flavobacterium, and Pseudomonas were isolated from a paper mill slime deposit and maintained in continuous culture. The test organisms were separately streaked onto plate count agar and incubated at 30° C. for 24 hours. With a sterile cotton swab, portions of the colonies were removed and suspended in sterile water. […]
Biofilm Production/Chemical Testing: To four separate bioreactors was added 200 ml of the sterile medium prepared above. Chemicals to be evaluated as biodispersants were first prepared as a stock solution (40 mg/2 ml) using either water or a 9:1 acetone: methanol mixture (ac/MeOH) as a solvent. […]

Compound	Score (% IBA) 168 h Incub. ([1]; Glass slides)	Score (% IBA) 168 h Incub. ([1]; SS (stainless steel) slides)	MIC pH8 (E. Aerogenes)	Score (biofilm score) [2]	MIC pH6 (E. Aerogenes)
CCCCNS(=O)(=O)O [a, butyl sulfamic acid]	0 % IBA	66 % IBA	>500		
CCCCCNS(=O)(=O)O [b, amyl sulfamic acid]	65 % IBA	14 % IBA	>500		
CCCCCCCCNS(=O)(=O)O [c, octyl sulfamic acid]	41 % IBA	54 % IBA	>100		
CCCCCCCCN(CCCCCCCC)S(=O)(=O)O [d, dioctyl sulfamic acid]			>100	3	
CCCCCCCCCCCCNS(=O)(=O)O [e, dodecyl sulfamic acid]	82 % IBA and 72 % IBA	78 % IBA and 70 % IBA		3.8	
CCCCCCCCCCCCN(CCCCCCCCCCCC)S(=O)(=O)O [f, didodecyl sulfamic acid]	27 % IBA	15 % IBA		2.00	
CCCCCCCCCCCCCCCCCCNS(=O)(=O)O [g, octadecyl sulfamic acid]			>500		
O=S(=O)(O)N(C1CCCCC1)C1CCCCC1 [h, dicyclohexyl sulfamic acid]	44 % IBA	57 % IBA	>100		>500
O=S(=O)(O)NN1CCOCC1 [i, morpholino sulfamic acid]	47 % IBA	39 % IBA	>100		>500
piperidinyl sulfamic acid [j]	40 % IBA	68 % IBA	>100	2.5	>100
